A short description of data set [1]: Molar enthalpy of transition or fusion. As to conditions: Crystal; DSC.
For data set [2] the following is noted: Crystal; DTA.

Numbers after ± are expanded uncertainties.

For the compound `CCCCC/C=C\C/C=C\CCCCCCCC(=O)O` [(Z,Z)-9,12-octadecadienoic acid], in data set [1], the “Molar enthalpy of transition or fusion” value was found to be 8.15 ± 0.215 kcal/mol. For the same compound, in data set [2], the Normal melting temperature is -4.91 ± 0.58 °C.
Regarding `CCCCCCCCCCCCCCCCCC(=O)O` [octadecanoic acid], the “Molar enthalpy of transition or fusion” value in data set [1] was determined as 15.4 ± 0.55 kcal/mol. Moreover, in data set [2], the Normal melting temperature stood at 70.83 ± 0.61 °C.
For `CCCCCCCCCCCCCC(=O)O` [tetradecanoic acid], in that order: 10.7 ± 0.406 kcal/mol and 54.53 ± 0.84 °C.

These data come from the NIST ThermoML archive (doi:10.1016/j.fluid.2016.01.011).
